Measurements taken from ChEMBL document CHEMBL3817824, “Synthesis and biological evaluation of new [1,2,4]triazolo[4,3-a]pyridine derivatives as potential c-Met inhibitors” (Bioorg Med Chem, 2016).

Columns and labels:
[1] = Cytotoxicity against human SNU5 cells assessed as reduction in cell survival incubated for 3 days by cell titre-glo assay; details: SNU-5, 72 h
[2] = target: cAMP-dependent protein kinase catalytic subunit alpha (Homo sapiens, UniProt P17612); experiment: Inhibition of PKACalpha (unknown origin) incubated for 1 hr by spectrophotometric analysis
[3] = target: Aurora kinase A (Homo sapiens, UniProt O14965); experiment: Inhibition of Aurora A (unknown origin) incubated for 1 hr by spectrophotometric analysis
[4] = target: Tyrosine-protein kinase ABL2 (Homo sapiens, UniProt P42684); experiment: Inhibition of ARG (unknown origin) incubated for 1 hr by spectrophotometric analysis
[5] = Cytotoxicity against human MHCC97H cells assessed as reduction in cell survival incubated for 3 days by cell titre-glo assay; type: functional, cell-based; details: 72 h
[6] = target: Tyrosine-protein kinase Fyn (Homo sapiens, UniProt P06241); experiment: Inhibition of FYN (unknown origin) incubated for 1 hr by spectrophotometric analysis
[7] = target: Tyrosine-protein kinase BTK (Homo sapiens, UniProt Q06187); experiment: Inhibition of BTK (unknown origin) incubated for 1 hr by spectrophotometric analysis
[8] = target: Fibroblast growth factor receptor 4 (Homo sapiens, UniProt P22455); experiment: Inhibition of FGFR4 (unknown origin) incubated for 1 hr by spectrophotometric analysis
[9] = target: Cyclin-dependent kinase 2 (Homo sapiens, UniProt P24941); experiment: Inhibition of CDK2 (unknown origin) incubated for 1 hr by spectrophotometric analysis
[10] = target: Proto-oncogene tyrosine-protein kinase receptor Ret (Homo sapiens, UniProt P07949); experiment: Inhibition of RET (unknown origin) incubated for 1 hr by spectrophotometric analysis
[11] = target: Serine/threonine-protein kinase N1 (Homo sapiens, UniProt Q16512); experiment: Inhibition of PKN1 (unknown origin) incubated for 1 hr by spectrophotometric analysis
[12] = target: Vascular endothelial growth factor receptor 1 (Homo sapiens, UniProt P17948); experiment: Inhibition of FLT1 (unknown origin) incubated for 1 hr by spectrophotometric analysis
[13] = target: Fibroblast growth factor receptor 1 (Homo sapiens, UniProt P11362); experiment: Inhibition of FGFR1 (unknown origin) incubated for 1 hr by spectrophotometric analysis
[14] = target: Mast/stem cell growth factor receptor Kit (Homo sapiens, UniProt P10721); experiment: Inhibition of c-Kit (unknown origin) incubated for 1 hr by spectrophotometric analysis
[15] = target: Tyrosine-protein kinase SYK (Homo sapiens, UniProt P43405); experiment: Inhibition of SYK (unknown origin) incubated for 1 hr by spectrophotometric analysis
[16] = target: Epidermal growth factor receptor (Homo sapiens, UniProt P00533, L858R/T790M); experiment: Inhibition of EGFR T790M/L858R mutant (unknown origin) incubated for 1 hr by spectrophotometric analysis; type: protein assay
[17] = target: Proto-oncogene tyrosine-protein kinase Src (Homo sapiens, UniProt P12931); experiment: Inhibition of SRC (unknown origin) incubated for 1 hr by spectrophotometric analysis
[18] = target: RAC-alpha serine/threonine-protein kinase (Homo sapiens, UniProt P31749); experiment: Inhibition of AKT1 (unknown origin) incubated for 1 hr by spectrophotometric analysis
[19] = target: Protein-tyrosine kinase 6 (Homo sapiens, UniProt Q13882); experiment: Inhibition of BRK (unknown origin) incubated for 1 hr by spectrophotometric analysis
[20] = target: Glycogen synthase kinase-3 beta (Homo sapiens, UniProt P49841); experiment: Inhibition of GSK3beta (unknown origin) incubated for 1 hr by spectrophotometric analysis
[21] = target: Receptor tyrosine-protein kinase erbB-4 (Homo sapiens, UniProt Q15303); experiment: Inhibition of HER4 (unknown origin) incubated for 1 hr by spectrophotometric analysis
[22] = Cytotoxicity against human HCCLM3 cells assessed as reduction in cell survival incubated for 3 days by cell titre-glo assay; type: functional, cell-based; details: HCCLM3, 72 h
[23] = system: NCI-H1975; experiment: Cytotoxicity against human NCI-H1975 cells assessed as reduction in cell survival incubated for 3 days by cell titre-glo assay; type: functional, cell-based; details: NCI-H1975, 72 h
[24] = target: Insulin-like growth factor 1 receptor (Homo sapiens, UniProt P08069); experiment: Inhibition of IGF-1R (unknown origin) incubated for 1 hr by spectrophotometric analysis
[25] = target: Epidermal growth factor receptor (Homo sapiens, UniProt P00533, L858R); experiment: Inhibition of EGFR L858R mutant (unknown origin) incubated for 1 hr by spectrophotometric analysis; type: protein assay
[26] = target: Leukocyte tyrosine kinase receptor (Homo sapiens, UniProt P29376); experiment: Inhibition of LTK (unknown origin) incubated for 1 hr by spectrophotometric analysis
[27] = target: Macrophage-stimulating protein receptor (Homo sapiens, UniProt Q04912); experiment: Inhibition of RON (unknown origin) incubated for 1 hr by spectrophotometric analysis
Chain of Macrophage-stimulating protein receptor (Q04912 25-304 limits assumed): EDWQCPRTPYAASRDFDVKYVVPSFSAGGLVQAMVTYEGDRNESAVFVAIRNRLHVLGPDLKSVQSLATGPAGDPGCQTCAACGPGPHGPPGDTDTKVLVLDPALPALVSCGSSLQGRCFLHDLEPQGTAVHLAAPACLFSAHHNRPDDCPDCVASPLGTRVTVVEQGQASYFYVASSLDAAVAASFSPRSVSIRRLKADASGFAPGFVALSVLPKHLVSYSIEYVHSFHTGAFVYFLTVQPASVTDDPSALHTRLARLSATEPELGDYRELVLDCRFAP
Chain of Macrophage-stimulating protein receptor (Q04912 310-1400 limits assumed): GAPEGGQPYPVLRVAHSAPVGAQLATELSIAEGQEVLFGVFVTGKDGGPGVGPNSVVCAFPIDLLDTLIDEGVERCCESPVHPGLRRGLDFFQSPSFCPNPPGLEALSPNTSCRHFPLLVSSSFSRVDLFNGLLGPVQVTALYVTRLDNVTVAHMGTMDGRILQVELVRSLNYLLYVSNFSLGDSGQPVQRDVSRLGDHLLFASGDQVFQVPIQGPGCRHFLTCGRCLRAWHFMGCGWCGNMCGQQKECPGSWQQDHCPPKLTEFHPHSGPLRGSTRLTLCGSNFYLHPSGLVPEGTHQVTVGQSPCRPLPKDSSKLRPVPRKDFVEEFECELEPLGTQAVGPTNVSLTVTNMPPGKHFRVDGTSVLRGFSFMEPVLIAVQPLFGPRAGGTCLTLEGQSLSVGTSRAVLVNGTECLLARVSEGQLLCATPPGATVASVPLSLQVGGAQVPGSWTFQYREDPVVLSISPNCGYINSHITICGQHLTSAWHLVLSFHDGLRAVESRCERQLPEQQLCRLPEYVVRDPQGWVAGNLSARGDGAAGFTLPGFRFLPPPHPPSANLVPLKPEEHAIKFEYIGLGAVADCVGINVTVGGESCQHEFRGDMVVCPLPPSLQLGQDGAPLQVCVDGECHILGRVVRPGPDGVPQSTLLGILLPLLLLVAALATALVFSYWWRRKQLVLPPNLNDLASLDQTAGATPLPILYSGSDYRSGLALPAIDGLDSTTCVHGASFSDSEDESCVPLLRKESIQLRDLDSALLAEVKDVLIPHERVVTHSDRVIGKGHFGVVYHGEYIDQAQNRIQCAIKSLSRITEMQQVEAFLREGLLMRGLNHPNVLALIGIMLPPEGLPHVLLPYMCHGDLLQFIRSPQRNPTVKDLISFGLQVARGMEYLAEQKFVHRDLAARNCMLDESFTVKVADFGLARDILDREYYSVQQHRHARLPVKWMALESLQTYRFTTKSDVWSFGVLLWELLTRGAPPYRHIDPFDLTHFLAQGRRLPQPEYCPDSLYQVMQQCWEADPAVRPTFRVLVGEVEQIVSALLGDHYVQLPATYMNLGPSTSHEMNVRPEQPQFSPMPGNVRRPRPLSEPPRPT

Chain of Mast/stem cell growth factor receptor Kit (P10721 whole entry): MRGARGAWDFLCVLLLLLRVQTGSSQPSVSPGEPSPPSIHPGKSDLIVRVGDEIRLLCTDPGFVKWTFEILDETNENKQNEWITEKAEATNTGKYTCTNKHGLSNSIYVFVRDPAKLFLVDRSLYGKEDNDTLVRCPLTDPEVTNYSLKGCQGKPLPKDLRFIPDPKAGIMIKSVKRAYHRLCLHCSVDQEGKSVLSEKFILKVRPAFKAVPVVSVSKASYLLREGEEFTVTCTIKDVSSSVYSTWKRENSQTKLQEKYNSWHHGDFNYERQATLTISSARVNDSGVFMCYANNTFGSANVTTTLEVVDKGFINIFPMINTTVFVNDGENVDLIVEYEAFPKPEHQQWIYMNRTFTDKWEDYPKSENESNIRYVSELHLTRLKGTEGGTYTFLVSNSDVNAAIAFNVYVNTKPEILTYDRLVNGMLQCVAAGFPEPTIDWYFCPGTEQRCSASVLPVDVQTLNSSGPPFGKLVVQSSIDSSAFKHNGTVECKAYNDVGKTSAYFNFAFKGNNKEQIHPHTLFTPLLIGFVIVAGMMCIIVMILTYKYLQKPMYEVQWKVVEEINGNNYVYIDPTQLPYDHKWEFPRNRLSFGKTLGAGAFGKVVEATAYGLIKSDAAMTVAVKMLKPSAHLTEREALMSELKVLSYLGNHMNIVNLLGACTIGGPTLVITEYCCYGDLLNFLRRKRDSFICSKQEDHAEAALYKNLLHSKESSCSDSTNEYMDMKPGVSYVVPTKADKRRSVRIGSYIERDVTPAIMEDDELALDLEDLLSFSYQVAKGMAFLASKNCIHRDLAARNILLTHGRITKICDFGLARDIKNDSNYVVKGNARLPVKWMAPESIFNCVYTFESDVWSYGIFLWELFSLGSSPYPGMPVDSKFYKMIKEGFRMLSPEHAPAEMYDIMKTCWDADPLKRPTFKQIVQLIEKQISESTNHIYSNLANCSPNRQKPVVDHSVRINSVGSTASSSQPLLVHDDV
Chain of Protein-tyrosine kinase 6 (Q13882 whole entry): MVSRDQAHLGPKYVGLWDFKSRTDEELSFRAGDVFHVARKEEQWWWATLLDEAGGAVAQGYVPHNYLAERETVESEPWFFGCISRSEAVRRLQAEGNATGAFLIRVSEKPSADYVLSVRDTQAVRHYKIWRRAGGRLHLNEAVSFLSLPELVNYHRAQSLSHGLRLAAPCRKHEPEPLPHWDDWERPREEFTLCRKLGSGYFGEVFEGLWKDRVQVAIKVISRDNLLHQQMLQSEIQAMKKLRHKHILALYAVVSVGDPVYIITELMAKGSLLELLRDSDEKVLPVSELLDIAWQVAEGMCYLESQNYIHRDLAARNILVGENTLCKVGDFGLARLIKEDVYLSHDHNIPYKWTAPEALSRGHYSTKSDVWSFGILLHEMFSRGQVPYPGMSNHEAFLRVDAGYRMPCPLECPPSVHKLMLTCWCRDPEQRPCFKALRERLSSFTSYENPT
Chain of Glycogen synthase kinase-3 beta (P49841 whole entry): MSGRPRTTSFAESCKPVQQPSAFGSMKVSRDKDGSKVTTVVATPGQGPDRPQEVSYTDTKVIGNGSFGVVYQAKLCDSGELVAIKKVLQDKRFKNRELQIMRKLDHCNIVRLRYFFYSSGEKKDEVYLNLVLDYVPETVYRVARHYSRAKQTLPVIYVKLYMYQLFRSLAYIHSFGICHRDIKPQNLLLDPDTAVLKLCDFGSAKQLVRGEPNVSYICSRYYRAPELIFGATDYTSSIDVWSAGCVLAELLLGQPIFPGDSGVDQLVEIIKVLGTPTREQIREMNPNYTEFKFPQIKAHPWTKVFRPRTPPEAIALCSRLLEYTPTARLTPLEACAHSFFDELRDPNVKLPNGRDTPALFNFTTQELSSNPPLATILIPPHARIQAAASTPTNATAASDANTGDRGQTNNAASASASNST
Chain of Epidermal growth factor receptor (Homo sapiens, UniProt P00533, L858R) (P00533 25-1210 L858R limits assumed): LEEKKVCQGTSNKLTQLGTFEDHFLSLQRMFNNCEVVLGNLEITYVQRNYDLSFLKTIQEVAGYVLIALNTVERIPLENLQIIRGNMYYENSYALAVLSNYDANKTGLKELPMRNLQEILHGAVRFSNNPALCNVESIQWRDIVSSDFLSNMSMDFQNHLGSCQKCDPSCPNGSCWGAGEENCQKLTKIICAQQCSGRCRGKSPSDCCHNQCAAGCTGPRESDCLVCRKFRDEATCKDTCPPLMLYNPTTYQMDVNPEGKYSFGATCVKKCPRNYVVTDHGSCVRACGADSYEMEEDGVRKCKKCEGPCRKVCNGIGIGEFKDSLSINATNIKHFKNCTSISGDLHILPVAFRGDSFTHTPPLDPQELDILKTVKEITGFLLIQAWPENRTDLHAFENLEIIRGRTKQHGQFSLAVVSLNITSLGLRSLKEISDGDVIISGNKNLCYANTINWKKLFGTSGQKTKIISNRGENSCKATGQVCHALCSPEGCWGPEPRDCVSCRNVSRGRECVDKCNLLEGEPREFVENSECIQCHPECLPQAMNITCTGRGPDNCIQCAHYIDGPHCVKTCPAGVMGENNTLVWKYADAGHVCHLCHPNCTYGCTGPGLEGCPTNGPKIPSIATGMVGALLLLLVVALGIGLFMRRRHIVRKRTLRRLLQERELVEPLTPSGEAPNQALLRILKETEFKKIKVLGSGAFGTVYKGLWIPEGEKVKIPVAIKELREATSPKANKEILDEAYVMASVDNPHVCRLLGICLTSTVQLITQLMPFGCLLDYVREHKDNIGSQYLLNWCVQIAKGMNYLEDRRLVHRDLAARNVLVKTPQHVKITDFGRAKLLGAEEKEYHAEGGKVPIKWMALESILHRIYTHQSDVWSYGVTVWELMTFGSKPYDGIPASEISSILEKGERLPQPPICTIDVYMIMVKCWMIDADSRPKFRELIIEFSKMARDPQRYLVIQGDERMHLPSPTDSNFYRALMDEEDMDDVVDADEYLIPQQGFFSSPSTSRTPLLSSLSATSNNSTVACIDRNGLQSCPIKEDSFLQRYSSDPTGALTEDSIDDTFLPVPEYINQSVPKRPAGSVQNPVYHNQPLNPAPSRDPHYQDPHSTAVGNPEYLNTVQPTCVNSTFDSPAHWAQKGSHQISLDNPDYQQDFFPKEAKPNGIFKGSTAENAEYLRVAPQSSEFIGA
Chain of Aurora kinase A (O14965 whole entry): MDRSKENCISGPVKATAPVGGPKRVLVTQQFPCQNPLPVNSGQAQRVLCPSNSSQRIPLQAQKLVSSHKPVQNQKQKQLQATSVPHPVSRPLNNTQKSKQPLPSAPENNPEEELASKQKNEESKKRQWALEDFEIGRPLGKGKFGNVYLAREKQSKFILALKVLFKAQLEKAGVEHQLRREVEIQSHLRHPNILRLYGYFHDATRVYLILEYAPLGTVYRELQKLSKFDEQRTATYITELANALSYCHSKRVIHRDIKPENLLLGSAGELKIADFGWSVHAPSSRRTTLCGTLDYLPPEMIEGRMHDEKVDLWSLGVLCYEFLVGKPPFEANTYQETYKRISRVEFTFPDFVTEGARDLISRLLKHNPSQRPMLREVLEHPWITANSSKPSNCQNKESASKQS

CN1C(=O)COc2c1cnc1ccc(Sc3nnc4c(F)cc(-c5cnn(C)c5)cn34)cc21 [DALMELITINIB]
IC50 [1]: 0.002 µM | IC50 [2]: > 30 µM | IC50 [3]: > 30 µM | IC50 [4]: > 30 µM | IC50 [5]: 0.006 µM | IC50 [6]: 11.2 µM | IC50 [7]: > 30 µM | IC50 [8]: > 30 µM | IC50 [9]: > 30 µM | IC50 [10]: > 30 µM | IC50 [11]: > 30 µM | IC50 [12]: > 30 µM | IC50 [13]: > 30 µM | IC50 [14]: > 30 µM | IC50 [15]: > 30 µM | IC50 [16]: > 30 µM | IC50 [17]: 15.5 µM | IC50 [18]: > 30 µM | IC50 [19]: > 30 µM | IC50 [20]: 16.2 µM | IC50 [21]: > 30 µM | IC50 [22]: 0.033 µM | IC50 [23]: > 10 µM | IC50 [24]: > 30 µM | IC50 [25]: > 30 µM | IC50 [26]: > 30 µM | IC50 [27]: > 30 µM
